These results are taken from ChEMBL document CHEMBL3886458 (2016).

SMILES strings stand for the structures.

Assay [1] concerns the target T1, Poly [ADP-ribose] polymerase tankyrase-1 (Homo sapiens, UniProt O95271).
T1 sequence (O95271 whole entry): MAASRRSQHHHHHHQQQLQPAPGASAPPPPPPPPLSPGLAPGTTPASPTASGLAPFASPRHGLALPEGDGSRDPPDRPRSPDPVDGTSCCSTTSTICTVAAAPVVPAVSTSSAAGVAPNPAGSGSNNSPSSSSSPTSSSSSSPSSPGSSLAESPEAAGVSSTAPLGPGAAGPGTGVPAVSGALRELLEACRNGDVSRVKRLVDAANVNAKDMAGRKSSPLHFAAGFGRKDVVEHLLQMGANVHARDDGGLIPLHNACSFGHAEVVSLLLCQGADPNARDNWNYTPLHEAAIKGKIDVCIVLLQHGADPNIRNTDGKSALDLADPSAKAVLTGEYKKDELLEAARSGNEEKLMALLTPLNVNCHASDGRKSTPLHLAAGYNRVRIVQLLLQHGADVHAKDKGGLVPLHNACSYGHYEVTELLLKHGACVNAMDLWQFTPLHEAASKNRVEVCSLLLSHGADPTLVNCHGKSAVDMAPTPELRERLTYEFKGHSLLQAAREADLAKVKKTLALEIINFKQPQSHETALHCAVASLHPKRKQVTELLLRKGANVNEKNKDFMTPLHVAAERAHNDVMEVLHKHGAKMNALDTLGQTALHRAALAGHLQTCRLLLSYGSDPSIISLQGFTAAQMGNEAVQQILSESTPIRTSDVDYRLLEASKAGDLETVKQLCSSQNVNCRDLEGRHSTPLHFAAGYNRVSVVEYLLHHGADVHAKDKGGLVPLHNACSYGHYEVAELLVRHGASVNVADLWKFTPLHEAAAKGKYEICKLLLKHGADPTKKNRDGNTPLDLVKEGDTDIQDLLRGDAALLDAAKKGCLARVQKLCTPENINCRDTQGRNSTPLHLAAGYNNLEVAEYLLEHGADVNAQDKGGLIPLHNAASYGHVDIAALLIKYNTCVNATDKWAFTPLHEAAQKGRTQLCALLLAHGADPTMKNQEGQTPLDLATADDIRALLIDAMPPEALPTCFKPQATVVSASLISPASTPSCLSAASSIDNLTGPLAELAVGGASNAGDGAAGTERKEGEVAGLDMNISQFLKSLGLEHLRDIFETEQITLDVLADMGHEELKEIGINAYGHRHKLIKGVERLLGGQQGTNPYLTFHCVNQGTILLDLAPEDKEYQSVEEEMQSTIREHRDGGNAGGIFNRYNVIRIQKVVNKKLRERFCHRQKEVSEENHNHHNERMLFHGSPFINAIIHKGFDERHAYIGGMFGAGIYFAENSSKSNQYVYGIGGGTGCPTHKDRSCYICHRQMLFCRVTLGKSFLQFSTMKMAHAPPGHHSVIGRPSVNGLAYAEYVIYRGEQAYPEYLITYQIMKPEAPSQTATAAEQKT
As to the kind of experiment: Biochemical Assay: The autoparsylation activity of the TNKS 1/2 or PARP1/2 enzymes was measured by the liquid chromatography-mass spectrometry (LC/MS) detection of nicotinamide as readout. Compound activity in inhibiting the TNKS and PARP autoparsylation was evaluated by IC50 measurements. In the compound screening assays, the reaction is composed of 5 uL of compound in […]-point serial ….

The target of assay [2] is T2, Poly [ADP-ribose] polymerase tankyrase-2 (Homo sapiens, UniProt Q9H2K2).
T2 sequence (Q9H2K2 whole entry): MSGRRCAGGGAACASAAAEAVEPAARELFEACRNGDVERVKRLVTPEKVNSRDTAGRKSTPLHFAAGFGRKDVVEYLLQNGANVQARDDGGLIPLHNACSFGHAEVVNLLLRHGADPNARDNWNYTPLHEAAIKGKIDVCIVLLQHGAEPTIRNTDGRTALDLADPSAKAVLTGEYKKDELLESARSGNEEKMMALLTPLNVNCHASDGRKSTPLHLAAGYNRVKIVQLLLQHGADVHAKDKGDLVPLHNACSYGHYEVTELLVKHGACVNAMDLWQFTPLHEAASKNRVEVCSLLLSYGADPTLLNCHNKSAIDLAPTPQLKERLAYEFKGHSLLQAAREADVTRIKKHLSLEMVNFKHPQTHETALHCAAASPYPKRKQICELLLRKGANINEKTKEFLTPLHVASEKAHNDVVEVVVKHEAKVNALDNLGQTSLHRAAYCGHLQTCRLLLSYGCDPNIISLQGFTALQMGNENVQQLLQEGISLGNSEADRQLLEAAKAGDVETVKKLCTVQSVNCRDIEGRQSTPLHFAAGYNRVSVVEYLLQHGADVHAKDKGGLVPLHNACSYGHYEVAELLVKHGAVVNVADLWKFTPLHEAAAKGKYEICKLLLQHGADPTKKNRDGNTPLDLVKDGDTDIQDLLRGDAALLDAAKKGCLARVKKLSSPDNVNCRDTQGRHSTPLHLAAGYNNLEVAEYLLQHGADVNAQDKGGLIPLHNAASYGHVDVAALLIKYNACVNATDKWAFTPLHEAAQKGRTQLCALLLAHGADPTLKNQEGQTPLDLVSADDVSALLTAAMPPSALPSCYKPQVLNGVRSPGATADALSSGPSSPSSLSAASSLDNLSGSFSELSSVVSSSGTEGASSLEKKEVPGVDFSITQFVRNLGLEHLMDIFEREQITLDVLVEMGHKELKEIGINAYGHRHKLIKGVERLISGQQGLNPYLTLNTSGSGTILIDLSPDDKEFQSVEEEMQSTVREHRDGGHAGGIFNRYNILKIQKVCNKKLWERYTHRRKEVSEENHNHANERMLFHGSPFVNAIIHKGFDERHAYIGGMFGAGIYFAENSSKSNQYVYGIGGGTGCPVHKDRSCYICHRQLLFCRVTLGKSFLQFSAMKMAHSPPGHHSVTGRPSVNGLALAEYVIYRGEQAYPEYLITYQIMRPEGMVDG
The description is as above.

In general, IC50 refers to the concentration at which inhibition is half-maximal. The low end stands for greater potency, the high end for weaker potency.

Take `O=c1[nH]c(CN(Cc2cccs2)S(=O)(=O)Cc2ccccc2)nc2c1COCC2`: the IC50 in assay [1] stood at 1160 nM; in assay [2], 177 nM.
Turning to `O=c1[nH]c(CN(Cc2cccs2)S(=O)(=O)CCc2ccccc2)nc2c1COCC2`, the IC50 worked out at 5120 nM in assay [1] and 910 nM in assay [2].
As for `O=C(CCc1c[nH]c2ccccc12)N(Cc1nc2c(c(=O)[nH]1)COCC2)Cc1cccs1`, the IC50 turned out to be 6400 nM in assay [1] and 1580 nM in assay [2].
